According to ChEMBL document CHEMBL4043292, “Discovery and Optimization of Phosphopantetheine Adenylyltransferase Inhibitors with Gram-Negative Antibacterial Activity” (J Med Chem, 2018):
Values after ≈ are worked out from the molar mass of the structure shown.

Columns and labels:
[1] = system: Escherichia coli; test: microbe, parasite or virus in culture; details: BW25113, 20 h
Description: Antibacterial activity against Escherichia coli BW25113 after 20 hrs by broth microdilution method

[2] = physchem; details: buffer, pH 7.4
Description: Lipophilicity, log D of the compound at pH 7.4

[3] = system: Escherichia coli; test: microbe, parasite or virus in culture; details: JW5503-1, 20 h
Description: Antibacterial activity against tolC deficient Escherichia coli JW5503-1 after 20 hrs by broth microdilution method

[4] = Inhibition of PPAT in Escherichia coli BW25113 assessed as reduction in level of CoA-SH metabolite by mass spectrometric method
[5] = Inhibition of PPAT in tolC deficient Escherichia coli JW5503-1 assessed as reduction in level of CoA-SH metabolite by mass spectrometric method
[6] = system: Pseudomonas aeruginosa; test: microbe, parasite or virus in culture; details: K1119, 20 h
Description: Antibacterial activity against mexAB deficient Pseudomonas aeruginosa K1119 after 20 hrs by broth microdilution method

[7] = system: Escherichia coli; test: microbe, parasite or virus in culture; details: JW0451-2, 20 h
Description: Antibacterial activity against acrB deficient Escherichia coli JW0451-2 after 20 hrs by broth microdilution method

[8] = in vitro; details: human, not told
Description: Efflux ratio in human microsomes

[9] = system: Pseudomonas aeruginosa; test: microbe, parasite or virus in culture; details: ATCC 35151, 20 h
Description: Antibacterial activity against Pseudomonas aeruginosa ATCC 35151 after 20 hrs by broth microdilution method

[10] = target: T1, Bifunctional coenzyme A synthase (Homo sapiens) (UniProt Q13057)
T1 sequence (whole entry): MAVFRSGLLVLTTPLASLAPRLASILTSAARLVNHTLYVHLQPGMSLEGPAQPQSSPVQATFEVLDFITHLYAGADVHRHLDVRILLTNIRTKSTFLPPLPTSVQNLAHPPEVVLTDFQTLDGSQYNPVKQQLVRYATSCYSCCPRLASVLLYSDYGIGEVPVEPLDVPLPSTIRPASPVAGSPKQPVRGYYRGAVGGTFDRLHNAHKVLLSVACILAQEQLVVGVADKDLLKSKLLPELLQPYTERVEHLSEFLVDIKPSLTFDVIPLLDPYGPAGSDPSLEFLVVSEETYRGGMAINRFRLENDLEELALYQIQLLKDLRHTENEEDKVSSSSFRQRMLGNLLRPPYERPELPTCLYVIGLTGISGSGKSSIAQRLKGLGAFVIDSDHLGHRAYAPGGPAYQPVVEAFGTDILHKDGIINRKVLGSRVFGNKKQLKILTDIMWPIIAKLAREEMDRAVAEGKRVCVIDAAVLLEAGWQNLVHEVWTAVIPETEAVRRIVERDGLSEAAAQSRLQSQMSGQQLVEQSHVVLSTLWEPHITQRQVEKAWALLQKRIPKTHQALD
Description: Inhibition of human coaSY expressed in tolC deficient Escherichia coli JWK0002 assessed as bacterial growth inhibition after 20 hrs by broth microdilution method

[11] = system: Escherichia coli; test: microbe, parasite or virus in culture; details: RFM795, 20 h
Description: Antibacterial activity Escherichia coli RFM795 harboring frame deletion of 23 amino acids in lptD gene after 20 hrs by broth microdilution method

[12] = system: Pseudomonas aeruginosa; test: microbe, parasite or virus in culture; details: PAO1, 20 h
Description: Antibacterial activity against Pseudomonas aeruginosa PAO1 after 20 hrs by broth microdilution method

| MIC [1] | logD [2] | MIC [3] | Compound | also measured |
| --- | --- | --- | --- | --- |
| > 128 µg/mL | 1.9 | 2 µg/mL (≈ 4.46 µM) | Cc1cc(NC[C@@H](N)c2ccccn2)n2nc(N[C@H](CC#N)c3cccc(Cl)c3)nc2n1 | – |
| 64 µg/mL (≈ 138 µM) | 3.7 | 0.25 µg/mL (≈ 0.538 µM) | Cc1cc(NC[C@@H](N)c2cccc(F)c2)n2nc(N[C@H](CC#N)c3cccc(Cl)c3)nc2n1 | – |
| > 128 µg/mL | – | 0.5 µg/mL (≈ 0.991 µM) | COC(=O)N1CCC(CCC(=O)O)(Cc2cccc([C@@H](CC#N)Nc3nc4nc(C)ccc4[nH]3)c2)CC1 | – |
| > 128 µg/mL | – | 16 µg/mL (≈ 48.7 µM) | Cc1cc(=O)n2nc(N[C@H](CC#N)c3cccc(Cl)c3)nc2[nH]1 | IC50 [4]: > 200000 nM; IC50 [5]: 590 nM |
| > 128 µg/mL | > 4.8 | 4 µg/mL (≈ 9.83 µM) | Cc1cc(NCCc2ccccc2)n2nc(N[C@H](C)c3cccc(Cl)c3)nc2n1 | – |
| > 128 µg/mL | 2.2 | 4 µg/mL (≈ 8.93 µM) | Cc1cc(NC[C@@H](N)c2ccncc2)n2nc(N[C@H](CC#N)c3cccc(Cl)c3)nc2n1 | – |
| > 128 µg/mL | – | 32 µg/mL (≈ 63.3 µM) | COC(=O)N1CCC(CNCCO)(Cc2cccc([C@@H](CC#N)Nc3nc4nc(C)ccc4[nH]3)c2)CC1 | – |
| > 128 µg/mL | – | 1 µg/mL (≈ 2.15 µM) | Cc1cc(NC[C@@H](N)c2c(C)noc2C)n2nc(N[C@H](CC#N)c3cccc(Cl)c3)nc2n1 | – |
| > 128 µg/mL | 0.02 | 16 µg/mL (≈ 33.6 µM) | COC(=O)N1CCC(Cc2cccc([C@@H](CC#N)Nc3nc4nc(C)ccc4[nH]3)c2)(C(=O)O)CC1 | – |
| > 128 µg/mL | 2 | 32 µg/mL (≈ 66.2 µM) | COC(=O)N1CCN(S(=O)(=O)c2cccc([C@@H](CC#N)Nc3nc4nc(C)ccc4[nH]3)c2)CC1 | – |
| 64 µg/mL (≈ 138 µM) | 3.2 | 0.125 µg/mL (≈ 0.269 µM) | Cc1cc(NC[C@@H](N)c2ccccc2F)n2nc(N[C@H](CC#N)c3cccc(Cl)c3)nc2n1 | – |
| 64 µg/mL (≈ 142 µM) | 3.7 | 0.06 µg/mL (≈ 0.133 µM) | COC(=O)N1CCC(Sc2cccc([C@@H](CC#N)Nc3nc4nc(C)ccc4[nH]3)c2)CC1 | – |
| > 128 µg/mL | – | 4 µg/mL (≈ 8.87 µM) | Cc1cc(NC[C@@H](N)c2nccn2C)n2nc(N[C@H](CC#N)c3cccc(Cl)c3)nc2n1 | – |
| 64 µg/mL (≈ 138 µM) | – | 0.5 µg/mL (≈ 1.08 µM) | Cc1cc(NC[C@@H](N)c2ccc(F)cc2)n2nc(N[C@H](CC#N)c3cccc(Cl)c3)nc2n1 | – |
| 64 µg/mL (≈ 153 µM) | – | 0.125 µg/mL (≈ 0.299 µM) | COC(=O)N1CC[C@H](Cc2cccc([C@@H](CC#N)Nc3nc4nc(C)ccc4[nH]3)c2)C1 | – |
| > 128 µg/mL | 2.3 | 4 µg/mL (≈ 8.93 µM) | Cc1cc(NC[C@@H](N)c2cccnc2)n2nc(N[C@H](CC#N)c3cccc(Cl)c3)nc2n1 | – |
| > 128 µg/mL | 2.7 | 4 µg/mL (≈ 9.51 µM) | COC(=O)N1CC[C@H](Oc2cccc([C@@H](CC#N)Nc3nc4nc(C)ccc4[nH]3)c2)C1 | – |
| – | – | 64 µg/mL (≈ 164 µM) | COc1ccc(Oc2cccc([C@@H](C)Nc3nc4[nH]c(C)cc(=O)n4n3)c2)cc1 | – |
| > 128 µg/mL | 3.2 | 8 µg/mL (≈ 17.9 µM) | Cc1cc(NC[C@H](N)c2ccccc2)n2nc(N[C@H](CC#N)c3cccc(Cl)c3)nc2n1 | – |
| 32 µg/mL (≈ 71.6 µM) | 3.4 | 0.25 µg/mL (≈ 0.559 µM) | Cc1cc(NC[C@@H](N)c2ccccc2)n2nc(N[C@H](CC#N)c3cccc(Cl)c3)nc2n1 | – |
| > 128 µg/mL | 1.9 | 2 µg/mL (≈ 4.14 µM) | COC(=O)N1CCC(S(=O)(=O)c2cccc([C@@H](CC#N)Nc3nc4nc(C)ccc4[nH]3)c2)CC1 | – |
| > 128 µg/mL | – | 0.5 µg/mL (≈ 1.03 µM) | COC(=O)N1CCC(CCC#N)(Cc2cccc([C@@H](CC#N)Nc3nc4nc(C)ccc4[nH]3)c2)CC1 | – |
| > 128 µg/mL | 3.6 | 0.25 µg/mL (≈ 0.558 µM) | Cc1cc(NC[C@@H](O)c2ccccc2)n2nc(N[C@H](CC#N)c3cccc(Cl)c3)nc2n1 | – |
| > 128 µg/mL | 2.9 | 2 µg/mL (≈ 4.71 µM) | Cc1cc(NCCc2c(C)n[nH]c2C)n2nc(N[C@H](C)c3cccc(Cl)c3)nc2n1 | – |

| Compound | MIC [1] | logD [2] | MIC [3] | also measured |
| --- | --- | --- | --- | --- |
| COC(=O)N1CCC(Oc2cccc([C@@H](CC#N)Nc3nc4nc(C)cc(N5CCN(C)CC5)c4[nH]3)c2)CC1 | > 128 µg/mL | – | 4 µg/mL (≈ 7.51 µM) | MIC [6]: > 128 µg/mL; MIC [7]: 64 µg/mL (≈ 120 µM); efflux ratio [8]: 0.56; MIC [9]: > 128 µg/mL; MIC [10]: > 128 µg/mL; MIC [11]: 64 µg/mL (≈ 120 µM); MIC [12]: > 128 µg/mL |
